Reference: patent US20250304526A1, “HIGH AND MULTIPLE REDOX POTENTIAL, STABLE, AND SOLUBLE BIS-DIARYLAMINE DERIVATIVES AND USES THEREOF” (University of Kentucky Research Foundation, priority 2024, published 2025)
Values after ≈ are worked out from the molar mass of the structure shown. Read-outs that look alike come from different tables or passages of the source.

Key:
Assay type in all cases: physicochemical
[1] = Cyclic voltammetry (redox potentials, diffusion coefficients); conditions: for Redox peak of radical cation formation (first oxidation potential): 1 mM, 0.1 M TBAPF6 in CH3CN, glassy carbon; for Kc (comproportionation constant): calculated from ΔE at 298 K
Method: CV measurements were carried out in a nitrogen-filled glovebox at ambient glovebox temperature using a VSP-300 potentiostat (BioLogic). Unless otherwise indicated, the CVs were recorded in 0.2 M TBAPF6/CH3CN as electrolyte with 3 mm diameter glassy carbon (CH Instruments, Inc.) as the working electrode. A non-aqueous Ag/Ag^+ (silver wire immersed in CH3CN containing 0.1 M TBABF4 and 0.01 M AgBF4) electrode was used as the reference electrode, and a Pt wire (CH Instruments, Inc.) as the counter electrode. Before each measurement, glassy carbon electrodes were mechanically polished with an aqueous slurry of graded alumina (0.05 μm), then ultra-sonicated in water then acetone for 1 min each. Voltammograms were recorded at a scan rate of 100 mV·s^−1. Ferrocene was used as an internal reference and the oxidation potentials were calibrated with respect to ferrocene/ferrocenium (Cp2Fe^0/+) redox couple. The diffusion coefficients were determined using Randles-Sevick equation: […]
with R being the perfect gas constant (8.314 J·mol^−1·K^−1), F the Faraday's constant (96485 C·mol^−1), T the absolute temperature (˜298 K), ip is the peak current intensity (in A), n the number of transferred electrons, A the area of the electrode (cm^2), D the diffusion coefficient (cm^2·s^−1), v the scan rate (V·s^−1) and c the concentration (mol·cm^−3). Data obtained from voltammograms at scan rates of 25, 50, 75, 100, 200, 300 and 400 mV·s^−1 were used for the calculation of diffusion coefficients.
Electrochemical characterization of 1-4 was achieved by cyclic voltammetry (CV) in 0.1 M TBAPF6 in CH3CN. Glassy carbon was used as the working electrode and 1 mM of active materials were used. All derivatives featured two distinct one-electron oxidation waves upon voltage sweep. The first and the second waves correspond to the sequential neutral to radical-cation and radical-cation to dication transformations, respectively. These features are in line with the presence of two redox centers in these molecules. The redox peaks associated with the radical cation formation for molecules 1 and 2 are centered at 0 and 0.17 V vs Fc^+/Fc, respectively (FIG. 4). These values are in line with the data reported in literature for the same molecules.^8 Note that in previous literature the electrochemistry is reported in 0.1 M TBAClO4 in dichloromethane and reported versus a Ag/AgCl reference electrode. The Fc^+/Fc couple has a redox potential at 0.403 V vs SCE and 0.44 V vs Ag/AgCl reference electrode. On the other hand, molecules 3 and 4 feature the radical cation transformation redox peaks at 0.41 and 0.53 V vs Fc^+/Fc, respectively (FIG. 4).
In fact, these molecules belong to a class of compounds known as mixed-valence (MV) compounds. Mixed valency is a term that refers to a chemical species, whether organic or inorganic, with two or more redox centers that have different oxidation stated. This concept was first introduced in 1915 by Hofmann and Hoeschele. MV species are usually intensely colored due to the unique electronic transitions associated with intervalence electron transfer. CV is a useful technique in studying MV species since it provides insights on how stable one ionic species will be with respect to disproportionation, using the comproportionation constant (Kc). Kc is used to measure the ease of isolating the radical-cation rather than obtaining a mixture of neutral, radical-cationic, and dicationic species. Kc can be calculated from the ΔE which is the value of the redox potential difference between the first and the second oxidation events. Kc is a quantity used to evaluate the electronic communication between two redox centers in mixed-valence species. Large comproportionation constant, i.e. a substantial value of ΔE, is a crucial requirement for the isolation of mixed-valence species separately of other oxidation states of the species. Kc is defined as: […]

[2] = Solubility determination in pure acetonitrile by mass measurement
Method: The solubility of the compounds in pure acetonitrile was determined by the mass measurement method described previously. Saturated solutions of each compound were prepared and filtered to remove any undissolved material. Afterwards, 3 mL of each solution were taken and added to previously weighed vials (the measurement was repeated three times for each solution, i.e. 3 vials for each solution). The vials were then stored open in a nitrogen-filled glove box to allow the slow evaporation of the solvent. After 10 days, acetonitrile was evaporated from all vials, leaving only the previously dissolved solid. The vials were then re-weighed and the mass of the solid was determined by subtracting the mass of the respective empty vial. The concentration of the compound was calculated from the mass of the dissolved solid and the volume of the sample placed into the vial.
The solubilities of 1-4 were examined in pure CH3CN using the mass measurement method.

[3] = UV-NIR spectroscopy of radical cations (IVCT band, Hush analysis); conditions: for ν1/2, Hush (Hush-theory predicted band width): predicted from νmax at 298 K; for ν1/2 (measured IVCT band width) / νmax (IVCT band): radical cation, 0.5 mM in pure CH3CN
Method: In an argon-filled glove box, 0.5 mM solutions of neutral and radical cation were prepared in acetonitrile and pipetted into 1 mm path length optical glass cuvettes. The choice of this path length of cuvette is dictated by the aim to prevent the UV-vis detector saturation of the intensely colored cationic species. All samples destined to UV-vis stability monitoring contained 0.1 M TBAPF6 whereas UV-NIR samples were in pure CH3CN. Solutions were added to the cuvettes inside an argon filled glovebox, sealed with a Teflon screw cap and removed from the glovebox for spectral analysis. UV-vis spectra were collected in an Agilent 8453 diode-array spectrometer. Spectra were collected at 0, 1, 3, 4, 5, 6 and 24 h after dissolution.
The synthesized cations were also characterized using UV-NIR spectroscopy (FIG. 3). From FIG. 3 it can be clearly seen that the spectra of the charged forms change dramatically as compared to the neutral forms. […] These values match perfectly to those reported by Lambert and Noll for the same molecules using spectroelectrochemistry in 0.1 M TBAPF6 in dichloromethane.^21
Class II or III assignment is based on electronic spectroscopy; the broadness and line shape of the IVCT transition is analyzed in this case. Analysis of the line broadness and line shape of the IVCT band is also used to determine whether a mixed-valence species belongs to Class II or III. Hush theory provides a relationship that simplifies at 298 K to:
where vmax is the maximum absorption of the IVCT band given in […].

[4] = Cyclic voltammetry (redox potentials, diffusion coefficients); conditions: 1 mM in 0.2M TBAPF6/CH3CN; for D (diffusion coefficient): Randles-Sevcik equation
[5] = organic solvent or mixture, thermodynamic from solid, read-out: Solubility

| Structure (SMILES) | Redox peak of radical cation formation (first oxidation potential) [1] [V vs Fc^+/Fc] | Kc (comproportionation constant) [1] | solubility [2] [mM] | solubility [2, 5] [mM] | ν1/2, Hush (Hush-theory predicted band width) [3] [cm⁻¹] | ν1/2 (measured IVCT band width) [3] [cm⁻¹] | νmax (IVCT band) [3] [cm⁻¹] | νmax (IVCT band) ([3]; listed as 1^⋅) [cm⁻¹] | E^o′1 (first redox potential) [4] [V vs Cp2Fe^0/+] | E^o′2 (second redox potential) [4] [V vs Cp2Fe^0/+] | ΔE (E^o′2 − E^o′1) [4] | D (diffusion coefficient) [4] |
| --- | --- | --- | --- | --- | --- | --- | --- | --- | --- | --- | --- | --- |
| COc1ccc(N(c2ccc(OC)cc2)c2ccc(N(c3ccc(OC)cc3)c3ccc(OC)cc3)cc2)cc1 [1^+⋅] | 0 | 3 × 10^6 | 8.76 (≈ 4670 µg/mL) | 9 (≈ 4790 µg/mL) | 4756 | 3846 | 9790 | ~10000 | 0.00 | 0.38 | 0.38 | 4.49 10^−6 cm^2 · s^−1 |
| COc1ccc(N(c2ccc(OC)cc2)c2ccc(-c3ccc(N(c4ccc(OC)cc4)c4ccc(OC)cc4)cc3)cc2)cc1 [2^+⋅] | 0.17 | 5 × 10^2 |  | 3.5 (≈ 2130 µg/mL) | 4740 | 3524 | 9728 |  | 0.17 | 0.33 | 0.16 | 1.81 10^−6 cm^2 · s^−1 |
| Cc1ccc(C(F)(F)F)cc1N(c1ccc(N(c2cc(C(F)(F)F)ccc2C)c2cc(C(F)(F)F)ccc2C)cc1)c1cc(C(F)(F)F)ccc1C [3^+⋅] | 0.41 | 3 × 10^8 | 13.34 (≈ 9880 µg/mL) | 13 (≈ 9630 µg/mL) | 5448 | 4018 | 12849 |  | 0.41 | 0.91 | 0.50 | 7.67 10^−6 cm^2 · s^−1 |
| Cc1ccc(C(F)(F)F)cc1N(c1ccc(-c2ccc(N(c3cc(C(F)(F)F)ccc3C)c3cc(C(F)(F)F)ccc3C)cc2)cc1)c1cc(C(F)(F)F)ccc1C [4^+⋅] | 0.53 | 5 × 10^2 |  | 13 (≈ 10600 µg/mL) | 4362 | 2519 | 8238 |  | 0.53 | 0.69 | 0.16 | 1.54 10^−6 cm^2 · s^−1 |
